# Reference: the supplement of paper PMC10307832
# How the values were obtained:
# Assay in all cases: relative viability (nuclei count vs DMSO), 5 days (fraction); higher = more cells survive
# NCI-H1975 = system: NCI-H1975
# Summary of the method: (§1)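 Relative viability equals treated-well nuclei counts divided by vehicle-well nuclei counts. Counts came from 4× images of lung cancer cell lines grown in 1536-well plates for 5 days after pin-tool dosing on the day after seeding. Dosing used one drug alone or a fixed anchor-drug dose plus five library-drug doses (not always all listed) in √10 steps, and values are medians of duplicate plates.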
# NCI-H520 = system: NCI-H520
# Summary of the method: as §1
# SW 900 = system: SW 900
# Summary of the method: as §1
# NCI-H1734 = system: NCI-H1734
# Summary of the method: as §1
# ChaGo-K-1 = system: ChaGo-K-1
# Summary of the method: as §1
# NCI-H596 = system: NCI-H596
# Summary of the method: as §1
# H3255 = system: H3255
# Summary of the method: as §1
# A-427 = system: A-427
# Summary of the method: as §1
# NCI-H2170 = system: NCI-H2170
# Summary of the method: as §1
# SK-MES-1 = system: SK-MES-1
# Summary of the method: as §1
# PC-3 [JPC-3] = system: PC-3 [JPC-3]
# Summary of the method: as §1
# NCI-H23 = system: NCI-H23
# Summary of the method: as §1
# EKVX = system: EKVX
# Summary of the method: as §1
# NCI-H1755 = system: NCI-H1755
# Summary of the method: as §1
# LK-2 = system: LK-2
# Summary of the method: as §1
# COR-L 105 = system: COR-L 105
# Summary of the method: as §1
# HCC-366 = system: HCC-366
# Summary of the method: as §1
# NCI-H441 = system: NCI-H441
# Summary of the method: as §1
# LOU-NH91 = system: LOU-NH91
# Summary of the method: as §1
# NCI-H1666 = system: NCI-H1666
# Summary of the method: as §1
# EMC-BAC-2 = system: EMC-BAC-2
# Summary of the method: as §1
structure (smiles),measurement,setting,value
CC1(C)CCC(c2ccc(Cl)cc2)=C(CN2CCN(c3ccc(C(=O)NS(=O)(=O)c4ccc(N[C@H](CCN5CCOCC5)CSc5ccccc5)c(S(=O)(=O)C(F)(F)F)c4)cc3)CC2)C1 [Navitoclax] + Cc1cc(Nc2cc(N3CCN(C)CC3)nc(Sc3ccc(NC(=O)C4CC4)cc3)n2)n[nH]1 [Tozasertib] (partner 0.1 µM),relative viability,NCI-H1975; first compound 0.005 µM,0.791
same,relative viability,NCI-H1975; first compound 0.01581 µM,0.917
same,relative viability,NCI-H1975; first compound 0.05 µM,0.714
same,relative viability,NCI-H1975; first compound 0.1581 µM,0.734
same,relative viability,NCI-H1975; first compound 0.5 µM,0.815
same,relative viability,NCI-H520; first compound 0.005 µM,0.511
same,relative viability,NCI-H520; first compound 0.01581 µM,0.408
same,relative viability,NCI-H520; first compound 0.05 µM,0.419
same,relative viability,NCI-H520; first compound 0.1581 µM,0.376
same,relative viability,NCI-H520; first compound 0.5 µM,0.392
same,relative viability,SW 900; first compound 0.005 µM,0.456
same,relative viability,SW 900; first compound 0.01581 µM,0.46
same,relative viability,SW 900; first compound 0.05 µM,0.385
same,relative viability,SW 900; first compound 0.1581 µM,0.59
same,relative viability,SW 900; first compound 0.5 µM,0.501
same,relative viability,NCI-H1734; first compound 0.005 µM,0.253
same,relative viability,NCI-H1734; first compound 0.01581 µM,0.259
same,relative viability,NCI-H1734; first compound 0.1581 µM,0.201
same,relative viability,NCI-H1734; first compound 0.5 µM,0.194
same,relative viability,ChaGo-K-1; first compound 0.005 µM,0.238
same,relative viability,ChaGo-K-1; first compound 0.01581 µM,0.225
same,relative viability,ChaGo-K-1; first compound 0.05 µM,0.184
same,relative viability,ChaGo-K-1; first compound 0.1581 µM,0.239
same,relative viability,ChaGo-K-1; first compound 0.5 µM,0.216
same,relative viability,NCI-H596; first compound 0.005 µM,0.776
same,relative viability,NCI-H596; first compound 0.01581 µM,0.853
same,relative viability,NCI-H596; first compound 0.1581 µM,0.885
same,relative viability,NCI-H596; first compound 0.5 µM,1.03
same,relative viability,H3255; first compound 0.005 µM,0.532
same,relative viability,H3255; first compound 0.01581 µM,0.705
same,relative viability,H3255; first compound 0.05 µM,0.673
same,relative viability,H3255; first compound 0.1581 µM,0.585
same,relative viability,H3255; first compound 0.5 µM,0.609
same,relative viability,A-427; first compound 0.005 µM,0.199
same,relative viability,A-427; first compound 0.01581 µM,0.192
same,relative viability,A-427; first compound 0.05 µM,0.161
same,relative viability,A-427; first compound 0.1581 µM,0.197
same,relative viability,A-427; first compound 0.5 µM,0.213
same,relative viability,NCI-H2170; first compound 0.005 µM,0.716
same,relative viability,NCI-H2170; first compound 0.01581 µM,0.71
same,relative viability,NCI-H2170; first compound 0.05 µM,0.689
same,relative viability,NCI-H2170; first compound 0.1581 µM,0.684
same,relative viability,NCI-H2170; first compound 0.5 µM,0.665
same,relative viability,SK-MES-1; first compound 0.005 µM,0.853
same,relative viability,SK-MES-1; first compound 0.01581 µM,0.976
same,relative viability,SK-MES-1; first compound 0.05 µM,0.953
same,relative viability,SK-MES-1; first compound 0.1581 µM,0.848
same,relative viability,SK-MES-1; first compound 0.5 µM,0.952
same,relative viability,PC-3 [JPC-3]; first compound 0.005 µM,0.846
same,relative viability,PC-3 [JPC-3]; first compound 0.01581 µM,0.892
same,relative viability,PC-3 [JPC-3]; first compound 0.05 µM,0.935
same,relative viability,PC-3 [JPC-3]; first compound 0.1581 µM,0.898
same,relative viability,PC-3 [JPC-3]; first compound 0.5 µM,0.876
same,relative viability,NCI-H23; first compound 0.005 µM,0.398
same,relative viability,NCI-H23; first compound 0.01581 µM,0.353
same,relative viability,NCI-H23; first compound 0.05 µM,0.336
same,relative viability,NCI-H23; first compound 0.1581 µM,0.325
same,relative viability,NCI-H23; first compound 0.5 µM,0.352
same,relative viability,EKVX; first compound 0.005 µM,0.411
same,relative viability,EKVX; first compound 0.01581 µM,0.388
same,relative viability,EKVX; first compound 0.05 µM,0.323
same,relative viability,EKVX; first compound 0.1581 µM,0.44
same,relative viability,EKVX; first compound 0.5 µM,0.294
same,relative viability,NCI-H1755; first compound 0.005 µM,0.523
same,relative viability,NCI-H1755; first compound 0.01581 µM,0.599
same,relative viability,NCI-H1755; first compound 0.05 µM,0.441
same,relative viability,NCI-H1755; first compound 0.1581 µM,0.453
same,relative viability,NCI-H1755; first compound 0.5 µM,0.527
same,relative viability,LK-2; first compound 0.005 µM,0.189
same,relative viability,LK-2; first compound 0.01581 µM,0.187
same,relative viability,LK-2; first compound 0.05 µM,0.198
same,relative viability,LK-2; first compound 0.1581 µM,0.159
same,relative viability,LK-2; first compound 0.5 µM,0.2
same,relative viability,COR-L 105; first compound 0.005 µM,0.353
same,relative viability,COR-L 105; first compound 0.01581 µM,0.338
same,relative viability,COR-L 105; first compound 0.05 µM,0.369
same,relative viability,COR-L 105; first compound 0.1581 µM,0.348
same,relative viability,COR-L 105; first compound 0.5 µM,0.29
same,relative viability,HCC-366; first compound 0.005 µM,0.109
same,relative viability,HCC-366; first compound 0.01581 µM,0.11
same,relative viability,HCC-366; first compound 0.1581 µM,0.118
same,relative viability,HCC-366; first compound 0.5 µM,0.117
same,relative viability,NCI-H441; first compound 0.005 µM,0.648
same,relative viability,NCI-H441; first compound 0.01581 µM,0.846
same,relative viability,NCI-H441; first compound 0.05 µM,0.719
same,relative viability,NCI-H441; first compound 0.1581 µM,0.524
same,relative viability,NCI-H441; first compound 0.5 µM,0.676
same,relative viability,LOU-NH91; first compound 0.005 µM,0.667
same,relative viability,LOU-NH91; first compound 0.01581 µM,0.627
same,relative viability,LOU-NH91; first compound 0.05 µM,0.714
same,relative viability,LOU-NH91; first compound 0.1581 µM,0.655
same,relative viability,LOU-NH91; first compound 0.5 µM,0.563
same,relative viability,NCI-H1666; first compound 0.005 µM,0.626
same,relative viability,NCI-H1666; first compound 0.01581 µM,0.638
same,relative viability,NCI-H1666; first compound 0.05 µM,0.61
same,relative viability,NCI-H1666; first compound 0.1581 µM,0.587
same,relative viability,NCI-H1666; first compound 0.5 µM,0.666
same,relative viability,EMC-BAC-2; first compound 0.005 µM,0.273
same,relative viability,EMC-BAC-2; first compound 0.01581 µM,0.27
same,relative viability,EMC-BAC-2; first compound 0.05 µM,0.243
same,relative viability,EMC-BAC-2; first compound 0.1581 µM,0.273
same,relative viability,EMC-BAC-2; first compound 0.5 µM,0.263
